# ChEMBL document CHEMBL1201862, “PubChem BioAssay data set” (2004)
# The source made the active and inactive calls.
# Experiments:
# [1] = target: T1, Corticotropin-releasing factor receptor 2/Corticotropin-releasing factor-binding protein (Homo sapiens, UniProt P24387+Q13324); experiment: activators of CRF receptor 2 with binding protein – uHTS hits, confirmation (AID 602473); assay type: functional; details: read-out: EC50_Mean
# T1 sequence (Q13324 whole entry): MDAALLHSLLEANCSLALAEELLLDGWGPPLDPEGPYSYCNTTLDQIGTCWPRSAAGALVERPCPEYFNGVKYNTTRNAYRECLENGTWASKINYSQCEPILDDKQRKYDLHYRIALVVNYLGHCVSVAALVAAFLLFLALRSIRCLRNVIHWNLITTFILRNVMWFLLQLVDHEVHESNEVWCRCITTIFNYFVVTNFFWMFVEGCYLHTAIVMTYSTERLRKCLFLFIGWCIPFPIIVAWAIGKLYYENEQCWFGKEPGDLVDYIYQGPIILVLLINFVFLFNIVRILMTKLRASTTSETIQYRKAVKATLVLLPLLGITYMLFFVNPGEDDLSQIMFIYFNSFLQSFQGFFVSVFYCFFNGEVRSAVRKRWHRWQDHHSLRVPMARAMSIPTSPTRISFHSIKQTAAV
# T1 sequence (P24387 whole entry): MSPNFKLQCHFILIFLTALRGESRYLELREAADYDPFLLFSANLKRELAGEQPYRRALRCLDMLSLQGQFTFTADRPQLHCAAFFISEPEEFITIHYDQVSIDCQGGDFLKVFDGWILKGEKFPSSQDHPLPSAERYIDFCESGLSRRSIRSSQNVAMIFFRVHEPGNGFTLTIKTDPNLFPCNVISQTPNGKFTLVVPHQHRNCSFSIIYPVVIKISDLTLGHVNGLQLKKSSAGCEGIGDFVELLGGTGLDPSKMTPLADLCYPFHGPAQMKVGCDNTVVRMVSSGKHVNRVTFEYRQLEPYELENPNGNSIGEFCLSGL
# fMet-Leu-Phe receptor = fMet-Leu-Phe receptor (Homo sapiens, UniProt P21462); experiment: FPR ligands, dose response (AID 519); assay type: functional
# fMet-Leu-Phe receptor, sequence (P21462 whole entry): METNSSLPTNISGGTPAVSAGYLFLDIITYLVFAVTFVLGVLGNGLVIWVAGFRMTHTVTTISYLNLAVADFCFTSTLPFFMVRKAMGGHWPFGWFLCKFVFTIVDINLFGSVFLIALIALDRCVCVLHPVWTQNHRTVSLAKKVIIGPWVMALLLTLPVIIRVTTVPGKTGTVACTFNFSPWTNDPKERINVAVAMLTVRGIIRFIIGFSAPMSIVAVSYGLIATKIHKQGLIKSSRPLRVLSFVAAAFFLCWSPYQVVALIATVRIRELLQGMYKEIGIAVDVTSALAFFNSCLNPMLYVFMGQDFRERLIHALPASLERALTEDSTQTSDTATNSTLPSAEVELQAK
# Leucine aminopeptidase = target: T2, Leucine aminopeptidase (Plasmodium falciparum 3D7, UniProt Q8IL11); experiment: P. falciparum M17LAP inhibitors, primary screen, biochemical, fluorogenic H-Leu-NHMec substrate, 1536-well (AID 1619); assay type: functional
# T2 sequence (Q8IL11 whole entry): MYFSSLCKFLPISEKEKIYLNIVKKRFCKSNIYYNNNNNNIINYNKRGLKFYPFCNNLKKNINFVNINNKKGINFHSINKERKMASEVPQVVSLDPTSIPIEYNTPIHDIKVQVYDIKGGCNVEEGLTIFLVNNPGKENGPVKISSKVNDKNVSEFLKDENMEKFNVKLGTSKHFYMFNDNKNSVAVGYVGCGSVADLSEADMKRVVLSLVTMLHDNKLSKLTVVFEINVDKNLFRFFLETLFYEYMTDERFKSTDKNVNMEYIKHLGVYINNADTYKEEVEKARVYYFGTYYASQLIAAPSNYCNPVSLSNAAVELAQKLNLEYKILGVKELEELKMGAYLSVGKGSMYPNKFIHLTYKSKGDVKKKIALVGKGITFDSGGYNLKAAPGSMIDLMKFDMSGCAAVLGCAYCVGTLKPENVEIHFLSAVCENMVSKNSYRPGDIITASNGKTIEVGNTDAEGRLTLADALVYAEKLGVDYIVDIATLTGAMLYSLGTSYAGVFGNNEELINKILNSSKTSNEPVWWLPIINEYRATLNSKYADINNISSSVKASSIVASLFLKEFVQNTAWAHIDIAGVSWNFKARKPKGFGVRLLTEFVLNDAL
# Genome polyprotein = Genome polyprotein (dengue virus type 2, UniProt P29990); experiment: Dengue-2 NS5 methyltransferase inhibitors, primary screen, biochemical, confirmation dose response (AID 588689); assay type: functional
# Genome polyprotein, sequence (P29990 2492-3391 limits assumed): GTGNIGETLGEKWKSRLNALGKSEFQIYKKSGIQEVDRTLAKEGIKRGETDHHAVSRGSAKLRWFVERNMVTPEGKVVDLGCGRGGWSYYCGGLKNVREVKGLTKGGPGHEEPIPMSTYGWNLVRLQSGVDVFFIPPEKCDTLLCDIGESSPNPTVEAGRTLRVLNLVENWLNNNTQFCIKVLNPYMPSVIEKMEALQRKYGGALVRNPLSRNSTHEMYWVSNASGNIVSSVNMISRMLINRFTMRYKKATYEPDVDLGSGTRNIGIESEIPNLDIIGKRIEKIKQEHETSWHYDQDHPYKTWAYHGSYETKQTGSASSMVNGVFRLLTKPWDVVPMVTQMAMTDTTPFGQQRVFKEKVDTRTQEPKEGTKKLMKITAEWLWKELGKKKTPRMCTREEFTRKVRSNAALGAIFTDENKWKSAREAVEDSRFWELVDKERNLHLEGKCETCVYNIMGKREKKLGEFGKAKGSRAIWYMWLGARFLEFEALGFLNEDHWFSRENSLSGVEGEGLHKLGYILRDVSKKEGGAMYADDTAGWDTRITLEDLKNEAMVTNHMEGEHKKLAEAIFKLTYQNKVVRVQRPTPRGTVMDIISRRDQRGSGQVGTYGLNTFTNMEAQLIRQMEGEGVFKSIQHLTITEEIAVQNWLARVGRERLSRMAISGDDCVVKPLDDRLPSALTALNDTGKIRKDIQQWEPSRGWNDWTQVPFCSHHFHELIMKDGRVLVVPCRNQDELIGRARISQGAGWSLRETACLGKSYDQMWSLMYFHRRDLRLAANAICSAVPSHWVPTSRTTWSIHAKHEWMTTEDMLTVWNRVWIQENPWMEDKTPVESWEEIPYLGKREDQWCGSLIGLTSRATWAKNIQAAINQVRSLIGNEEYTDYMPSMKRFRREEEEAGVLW
# [2] = MITF Orthogonal Assay: SK-MEL-5 CTG Assay Measured in Cell-Based System Using Plate Reader - 2084-02_Inhibitor_Dose_DryPowder_Activity_Set7.; assay type: functional
# [3] = TRPM1 promoter luciferase reporter signal decrease, dose response, MITF inhibitor project, cell-based, SK-MEL-5, dry powder, set 8 (AID 624430); assay type: functional
# [4] = MITF: Counter assay: A375 proliferation Measured in Cell-Based System Using Plate Reader - 2084-03_Inhibitor_Dose_DryPowder_Activity_Set8.; assay type: functional; details: A-375
# [5] = BHK-21 cell cytotoxicity, cytotoxicity control for flavivirus guanylyltransferase probe project, secondary screen (AID 624078); assay type: functional
# Caspase-9 = Caspase-9 (Homo sapiens, UniProt P55211); experiment: caspase-9 enzyme inhibition, dose response, selectivity assay for caspase-6 inhibitor project, biochemical, fluorescence, plate reader, cherry-picked samples (AID 743293)
# Caspase-9, sequence (P55211 1-315 limits assumed): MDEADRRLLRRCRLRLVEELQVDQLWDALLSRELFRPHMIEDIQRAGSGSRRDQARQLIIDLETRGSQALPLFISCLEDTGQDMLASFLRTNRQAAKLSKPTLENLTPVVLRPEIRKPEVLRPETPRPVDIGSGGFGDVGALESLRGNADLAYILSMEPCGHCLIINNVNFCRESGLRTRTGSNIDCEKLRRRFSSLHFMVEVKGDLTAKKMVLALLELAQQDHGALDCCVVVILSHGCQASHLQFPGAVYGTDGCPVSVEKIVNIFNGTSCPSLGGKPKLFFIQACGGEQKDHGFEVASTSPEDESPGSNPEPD
# Caspase-9, sequence (P55211 331-416 limits assumed): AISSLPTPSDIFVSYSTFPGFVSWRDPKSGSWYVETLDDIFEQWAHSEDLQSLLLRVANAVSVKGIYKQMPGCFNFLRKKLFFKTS
# [6] = microbe, parasite or virus in culture; assay type: functional; details: Mycobacterium tuberculosis
# Caspase-7 = Caspase-7 (Homo sapiens, UniProt P55210); experiment: human caspase-7 inhibitors, dose response, selectivity assay for caspase-6 inhibitor project, biochemical, DEVD-R110 fluorescence, cherry-pick (AID 743295)
# Caspase-7, sequence (P55210 24-198 limits assumed): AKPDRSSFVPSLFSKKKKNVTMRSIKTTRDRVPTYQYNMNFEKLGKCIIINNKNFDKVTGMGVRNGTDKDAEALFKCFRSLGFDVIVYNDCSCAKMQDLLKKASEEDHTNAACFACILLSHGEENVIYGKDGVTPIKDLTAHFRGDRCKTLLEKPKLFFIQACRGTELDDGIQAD
# Caspase-7, sequence (P55210 207-303 limits assumed): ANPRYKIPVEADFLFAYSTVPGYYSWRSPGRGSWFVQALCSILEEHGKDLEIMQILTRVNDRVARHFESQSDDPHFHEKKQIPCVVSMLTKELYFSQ
# [7] = target: T3, RNA-binding protein pos-1 (Caenorhabditis elegans, UniProt G5EF15); experiment: inhibitors of POS-1/mex-3 RNA binding, dose response, biochemical, fluorescence polarization (AID 1964);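 further: purified POS-1 fused to maltose binding protein made in E. coli; potency of compounds blocking POS-1 binding to fluorescent RNA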
# T3 sequence (G5EF15 whole entry): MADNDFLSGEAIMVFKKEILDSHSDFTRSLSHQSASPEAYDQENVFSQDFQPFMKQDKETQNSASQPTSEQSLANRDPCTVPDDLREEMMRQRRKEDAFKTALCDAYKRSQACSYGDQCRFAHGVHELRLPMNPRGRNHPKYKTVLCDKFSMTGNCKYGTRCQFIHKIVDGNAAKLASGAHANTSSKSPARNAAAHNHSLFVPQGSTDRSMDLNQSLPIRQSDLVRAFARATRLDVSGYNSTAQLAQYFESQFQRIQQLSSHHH
# [8] = target: T4, Zinc finger protein mex-5 (Caenorhabditis elegans, UniProt Q9XUB2); experiment: MEX-5/TCR-2 RNA interaction inhibitors, dose response, biochemical, C. elegans, fluorescence polarization (AID 1960)
# T4 sequence (Q9XUB2 whole entry): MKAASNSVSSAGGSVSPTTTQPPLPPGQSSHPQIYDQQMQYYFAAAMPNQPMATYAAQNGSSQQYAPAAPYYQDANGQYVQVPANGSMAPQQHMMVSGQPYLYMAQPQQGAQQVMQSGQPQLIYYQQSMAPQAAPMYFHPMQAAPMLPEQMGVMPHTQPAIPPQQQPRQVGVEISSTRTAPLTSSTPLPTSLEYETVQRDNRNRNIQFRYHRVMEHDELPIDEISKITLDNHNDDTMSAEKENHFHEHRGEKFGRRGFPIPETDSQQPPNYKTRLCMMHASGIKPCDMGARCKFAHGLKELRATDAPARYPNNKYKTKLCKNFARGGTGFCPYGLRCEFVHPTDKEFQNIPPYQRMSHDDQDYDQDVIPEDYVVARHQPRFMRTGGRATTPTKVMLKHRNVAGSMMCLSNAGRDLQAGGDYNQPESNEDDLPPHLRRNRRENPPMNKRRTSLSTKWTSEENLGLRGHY
# Protein RecA = target: T5, Protein RecA (Mycobacterium tuberculosis, UniProt P9WHJ3); experiment: Fluorescence Cell-Free Homogeneous Dose Retest to Identify Inhibitors of RecA-Intein Splicing Activity. [Related pubchem assays (depositor defined):AID2097, AID2223, AID489010, AID492950]; assay type: functional
# T5 sequence (P9WHJ3 whole entry): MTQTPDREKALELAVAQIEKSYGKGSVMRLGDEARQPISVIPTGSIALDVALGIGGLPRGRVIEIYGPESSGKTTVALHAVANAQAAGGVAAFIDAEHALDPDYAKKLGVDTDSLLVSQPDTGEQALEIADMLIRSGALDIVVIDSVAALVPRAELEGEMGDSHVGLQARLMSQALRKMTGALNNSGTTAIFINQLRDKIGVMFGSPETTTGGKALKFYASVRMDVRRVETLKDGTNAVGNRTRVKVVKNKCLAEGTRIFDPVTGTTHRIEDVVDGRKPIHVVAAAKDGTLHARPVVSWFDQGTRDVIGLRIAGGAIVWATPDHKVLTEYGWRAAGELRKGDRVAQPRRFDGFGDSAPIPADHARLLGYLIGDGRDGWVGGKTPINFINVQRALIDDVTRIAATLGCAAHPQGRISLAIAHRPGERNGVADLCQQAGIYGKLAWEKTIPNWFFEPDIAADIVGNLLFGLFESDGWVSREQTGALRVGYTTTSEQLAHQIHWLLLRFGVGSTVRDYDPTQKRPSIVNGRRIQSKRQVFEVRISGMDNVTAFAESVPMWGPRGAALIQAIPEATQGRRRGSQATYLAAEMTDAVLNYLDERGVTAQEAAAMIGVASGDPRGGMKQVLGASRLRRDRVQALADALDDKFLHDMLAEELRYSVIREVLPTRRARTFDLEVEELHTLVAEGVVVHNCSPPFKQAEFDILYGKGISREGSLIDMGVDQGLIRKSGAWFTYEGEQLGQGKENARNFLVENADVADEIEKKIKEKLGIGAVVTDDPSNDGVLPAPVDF
# [9] = NIH-3T3 fibroblast cytotoxicity, dose response, cytotoxicity control, cell-based, fluorescence, Alamar Blue, secondary assay (AID 2327); assay type: functional;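 further: NIH-3T3 mouse fibroblasts cultured with fluconazole at 8 µg/mL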
# [10] = target: Dual specificity tyrosine-phosphorylation-regulated kinase 1A (Rattus norvegicus, UniProt Q63470); assay type: biochemical, Homo sapiens
# Caspase-6 = target: T6, Caspase-6 (Homo sapiens, UniProt P55212); experiment: human caspase-6 inhibitors, dose response, biochemical, VEID-R110 fluorescence, cherry-pick (AID 720632)
# T6 sequence (P55212 whole entry): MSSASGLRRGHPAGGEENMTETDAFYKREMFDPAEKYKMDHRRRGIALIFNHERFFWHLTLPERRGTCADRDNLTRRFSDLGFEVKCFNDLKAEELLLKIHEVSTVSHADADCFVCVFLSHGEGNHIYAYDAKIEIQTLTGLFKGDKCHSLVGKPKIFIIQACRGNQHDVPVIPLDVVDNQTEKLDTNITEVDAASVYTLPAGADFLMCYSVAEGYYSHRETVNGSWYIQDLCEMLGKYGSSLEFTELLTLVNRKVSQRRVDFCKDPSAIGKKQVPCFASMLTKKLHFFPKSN
# [11] = target: T7, Apoptotic protease-activating factor 1 (Homo sapiens, UniProt O14727); assay type: functional
# T7 sequence (O14727 whole entry): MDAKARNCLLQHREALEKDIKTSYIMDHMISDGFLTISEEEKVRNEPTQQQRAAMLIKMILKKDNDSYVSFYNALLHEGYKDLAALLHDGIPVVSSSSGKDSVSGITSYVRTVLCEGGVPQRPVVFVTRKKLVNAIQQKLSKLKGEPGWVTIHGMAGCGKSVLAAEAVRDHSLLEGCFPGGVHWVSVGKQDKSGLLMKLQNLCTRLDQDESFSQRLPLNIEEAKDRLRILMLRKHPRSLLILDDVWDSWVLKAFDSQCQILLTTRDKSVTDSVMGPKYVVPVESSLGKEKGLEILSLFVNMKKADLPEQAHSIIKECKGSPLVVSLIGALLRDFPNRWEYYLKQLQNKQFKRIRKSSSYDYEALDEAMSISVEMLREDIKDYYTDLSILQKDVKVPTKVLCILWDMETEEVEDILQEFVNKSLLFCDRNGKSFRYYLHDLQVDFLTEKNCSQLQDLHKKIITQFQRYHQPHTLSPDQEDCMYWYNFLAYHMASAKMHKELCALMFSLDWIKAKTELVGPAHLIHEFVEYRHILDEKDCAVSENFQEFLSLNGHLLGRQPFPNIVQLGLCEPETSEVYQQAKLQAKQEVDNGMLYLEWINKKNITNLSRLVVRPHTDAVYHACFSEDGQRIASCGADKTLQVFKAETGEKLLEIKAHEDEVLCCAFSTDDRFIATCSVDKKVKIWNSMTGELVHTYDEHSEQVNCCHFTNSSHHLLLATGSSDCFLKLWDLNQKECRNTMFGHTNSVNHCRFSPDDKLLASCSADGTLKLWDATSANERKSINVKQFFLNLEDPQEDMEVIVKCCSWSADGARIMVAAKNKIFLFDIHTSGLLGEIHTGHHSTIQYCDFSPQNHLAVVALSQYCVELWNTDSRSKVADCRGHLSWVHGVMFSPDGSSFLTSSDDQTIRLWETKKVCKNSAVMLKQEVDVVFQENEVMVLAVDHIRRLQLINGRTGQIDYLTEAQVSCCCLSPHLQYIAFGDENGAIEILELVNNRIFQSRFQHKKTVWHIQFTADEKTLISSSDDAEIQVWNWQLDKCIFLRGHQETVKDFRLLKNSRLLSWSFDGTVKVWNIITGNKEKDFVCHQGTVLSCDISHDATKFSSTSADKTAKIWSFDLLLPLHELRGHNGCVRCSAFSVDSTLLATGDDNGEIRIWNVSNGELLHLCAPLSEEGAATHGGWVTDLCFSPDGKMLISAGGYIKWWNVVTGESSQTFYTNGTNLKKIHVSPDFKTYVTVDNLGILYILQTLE
# [12] = C. albicans growth with fluconazole, confirmation, fluorescence, retest (AID 2467); assay type: functional, cell-based
# [13] = non-specific cell cytotoxicity, dose response, cytotoxicity control for PAX8 inhibitor project, plate reader, dry powder samples (AID 743021); assay type: functional, cell-based
# [14] = HepG2 cell cytotoxicity, dose response, cytotoxicity control, dry powder samples (AID 720568); assay type: functional, cell-based
# [15] = Luminescence Cell-Based Dose Retest to Confirm Inhibitors of Cancer Stem Cells. [Related pubchem assays (depositor defined):AID2717, AID2721]; assay type: functional; details: Homo sapiens
smiles,measurement,setting,value
Cc1sc(NC(=O)C2CCCCC2C(=O)O)c(C(N)=O)c1-c1ccc(C(C)(C)C)cc1 (configuration not stated),EC50,[1],5.33 µM (active)
same,Ki,fMet-Leu-Phe receptor,41.2 µM (inactive)
same,IC50,Leucine aminopeptidase,11.1 µM (active)
same,IC50,Genome polyprotein,60.1 µM (active)
O=C1C=C(Nc2ccc(Cl)c(C(F)(F)F)c2)C(=O)c2ccccc21,AC50,[2],0.754 µM (active)
same,AC50,[3],> 70 µM (inactive)
same,AC50,[4],> 70 µM (inactive)
O=S(=O)(Nc1cc(Sc2nc[nH]n2)c(O)c2ccccc12)c1ccc(F)cc1,CC50,[5],14.3 µM (active)
CN1CCc2cc3c(c4c2C1Cc1ccccc1-4)OCO3 (configuration not stated) [ROEMERINE],AC50,Caspase-9,> 70 µM (inactive)
same,CC50,[6],> 40 µM (active)
same,AC50,Caspase-7,1.51 µM (active)
same,EC50,[7],16.8 µM (active)
same,EC50,[8],21.5 µM (inconclusive)
same,EC50,Protein RecA,0.0797 µM (active)
same,EC50,[9],> 150 µM (inactive)
same,AC50,[10],2.54 µM (active)
same,AC50,Caspase-6,3.68 µM (active)
same,IC50,[11],10.2 µM (active)
same,EC50,[12],> 38 µM (not active)
Nc1nc(=S)c2ncn([C@@H]3O[C@H](CO)[C@@H](O)[C@H]3O)c2[nH]1 [THIOGUANOSINE],AC50,[13],2.21 µM (active)
same,AC50,[14],6.38 µM (active)
same,AC50,[15],0.301 µM (active)
